From US7022700B2, “Method of increasing neutrophil production using optically-pure (R)-2,3-benzodiazepines” (Vela Pharmaceuticals, Inc., priority 2002, dated 2006)
Marks after values point to notes of the source that are not given here.

Key:
[1] = tested on: neutrophil production (absolute neutrophil count); experiment: Increase in neutrophil production in 16-day study in rat; format: in vivo
Protocol: Animals were identified using an implanted microchip identification device encoded with a unique number. Each animal was dosed daily via oral gavage with either a test substance (R-tofisopam) or control, starting on Day 1 and through day 15. The control article was 0.5% low viscosity carboxymethylcellulose (CMC) (Lot No. 74231) and 0.4% Tween 80® (lot no. QJ1033) in reverse osmosis water.
The animals were sacrificed on Day 16 (with the exception of three males and one female which died on test or was sacrificed before the scheduled termination, and which are not included in the mean neutrophil count data). Neutrophil counts in Table 2, below, are reported as a mean value of the count for the animals of each group surviving and sacrificed on Day 16.
The normal range of absolute neutrophil counts is […] for male and 0.2–2.4×10^3 cells/μL for female rats. For each sex, groups 2–4 were compared with the control group (Group 1M or 1F). Group comparisons were evaluated at the 5.0%, two-tailed probability level. Data marked with * represents a statistically significant difference from the corresponding control group.

lymphocyte = conditions: in vitro; cited from earlier work
IL-2 production = conditions: in vitro; cited from earlier work
peripheral BZ receptors = peripheral BZ receptors (Homo sapiens, UniProt P30536); conditions: cited from earlier work
peripheral BZ receptors, sequence (P30536 whole entry): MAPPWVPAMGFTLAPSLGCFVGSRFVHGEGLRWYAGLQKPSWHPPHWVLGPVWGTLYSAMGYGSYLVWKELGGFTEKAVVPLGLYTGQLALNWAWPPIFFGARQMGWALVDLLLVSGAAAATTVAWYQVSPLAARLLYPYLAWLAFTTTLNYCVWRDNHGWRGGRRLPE

[2] = tested on: central benzodiazepine (BZ) receptors; conditions: cited from earlier work
[3] = in vivo; cited from earlier work
[4] = female rats, group 2F, 100 mg/kg/day oral gavage days 1-15
[5] = female rats, group 3F, 200 mg/kg/day oral gavage days 1-15
[6] = female rats, group 4F, 400 mg/kg/day oral gavage days 1-15
[7] = male rats, group 2M, 100 mg/kg/day oral gavage days 1-15
[8] = male rats, group 3M, 200 mg/kg/day oral gavage days 1-15
[9] = male rats, group 4M, 400 mg/kg/day oral gavage days 1-15

For `CC[C@H]1C(C)=NN=C(c2ccc(OC)c(OC)c2)c2cc(OC)c(OC)cc21` [R-tofisopam, (R)-1-(3,4-dimethoxyphenyl)-4-methyl-5-ethyl-7,8-dimethoxy-5H-2,3-benzodiazepine], the “Mean % change (day 16)” value [1, 4] was 29* %, the “Mean Neutrophil count (day 16)” value [1, 4] was 2.4* × 10^3/μL and the “Mean % change (day 16)” value [1, 5] was 47* %. For the same molecule, the “Mean Neutrophil count (day 16)” value [1, 5] was 6.0* × 10^3/μL, the “Mean % change (day 16)” value [1, 6] was 63* % and the “Mean Neutrophil count (day 16)” value [1, 6] was 11.6* × 10^3/μL. The “neutrophil levels versus control group” value ([1]; male and female rats, 100-400 mg/kg/day oral gavage, 5.0% two-tailed probability level) was “significantly increased in a dose-dependant manner”, the “Mean % change (day 16)” value [1, 7] was 43* % and the “Mean Neutrophil count (day 16)” value [1, 7] was 5.7* × 10^3/μL. The “Mean % change (day 16)” value [1, 8] was 45* %, the “Mean Neutrophil count (day 16)” value [1, 8] was 7.4* × 10^3/μL and the “Mean % change (day 16)” value [1, 9] was 57* %. The “Mean Neutrophil count (day 16)” value [1, 9] was 12.9* × 10^3/μL.

In the case of `CCC1C(C)=NN=C(c2ccc(OC)c(OC)c2)c2cc(OC)c(OC)cc21` (racemic) [tofisopam], the mitogen-induced lymphocyte proliferation (lymphocyte) is given as “enhances”, the IL-2 production (IL-2 production) is given as “enhances” and the “binding to peripheral BZ receptors” value (peripheral BZ receptors) is given as “binds only weakly”. The “interaction with central benzodiazepine (BZ) receptors” value [2] was “does not interact”.

B1: Neulasta: a longer acting derivative of filgrastim (protein, chains of the INN, looked up)
chain: TPLGPASSLPQSFLLKCLEQVRKIQGDGAALQEKLCATYKLCHPEELVLLGHSLGIPWAPLSSCPSQALQLAGCLSQLHSGLFLYQGLLQALEGISPELGPTLDTLQLDVADFATTIWQQMEELGMAPALQPTQGAMPAFASAFQRRAGGVLVASHLQSFLEVSYRVLRHLAQP
modifications: PEG 20 kDa
notes: a longer acting derivative of filgrastim
In the case of B1, the elimination half-life [3] is given as 15 to 80 h.

B2: Nupogen: recombinant version of a human protein, G-CSF (granulocyte-colony stimulating factor) (protein, chains of the INN, looked up)
chain: MTPLGPASSLPQSFLLKCLEQVRKIQGDGAALQEKLCATYKLCHPEELVLLGHSLGIPWAPLSSCPSQALQLAGCLSQLHSGLFLYQGLLQALEGISPELGPTLDTLQLDVADFATTIWQQMEELGMAPALQPTQGAMPAFASAFQRRAGGVLVASHLQSFLEVSYRVLRHLAQP
For B2, the elimination half-life [3] is given as 3.5 h.
